Consider 37 compounds from patent US4870074A, “Substituted benzamide derivatives, for enhancing gastrointestinal motility” (priority 1986, dated 1989).

In one data set the test system is gastric emptying. Briefly: Test 1: gastric emptying enhancing activity (phenol red test meal). The data set is classed as in vivo, Male Wistar rats. Particulars: for change in vivo at 0.5 mg/kg / change in vivo at 2 mg/kg / change in vivo at 0.2 mg/kg / change in vivo at 5 mg/kg / change in vivo at 10 mg/kg: po, 0.25 h, 60 min before test meal, rat, read-out: Gastric emptying enhancing activity, Increase (emptying rate vs control); for change in vivo at 0.5 mg/kg: 0.5 mg/kg p.o.; for change in vivo at 2 mg/kg: 2.0 mg/kg p.o.; for change in vivo at 0.2 mg/kg: 0.2 mg/kg p.o.; for change in vivo at 5 mg/kg: 5.0 mg/kg p.o.; for change in vivo at 10 mg/kg: 10.0 mg/kg p.o. On the procedure:
The test was carried out according to the method of Scarpignato et al. [cf. Arch. int. Pharmacodyn., 246, 286-294 (1980)].
Male Wistar rats, weighing 130-150 g, were fasted for 18 hours before experimentation, and 1.5 ml of a test meal (phenol red 0.05% in a 1.5% aqueous methylcellulose solution) was given by gastric tube. Fifteen minutes after administration of the meal the stomach was removed and the amount of phenol red remaining in the stomach was measured.
The test compounds, dissolved or suspended in a 0.5% tragacanth solution, were orally administered 60 minutes before administration of the test meal. The rate of gastric emptying was calculated according to the amount of phenol red remaining in the stomach, and the activity of the test compounds was expressed in terms of increase in the emptying rate from the control. The number of animals used was 5 for the control and each dose of metoclopramide hydrochloride monohydrate and 4 for each dose of the other test compounds.

The subject of the next data set is central nervous system. The data set is described as follows: Test 3: effect on the central nervous system (CNS effect), Irwin observation. Conditions: 100 mg/kg, p.o., mouse, 2 hours observation.

Description for central nervous system: Male ddY mice, weighing 18-25 g, were used in groups of 3 animals each. […] Psychopharmacologia, 13, 222-227 (1968)], comprehensive observation of behavioral and physiologic states were carried out for 2 hours after the oral treatment with 100 mg/kg of the test compound, dissolved or suspended in a 0.5% tragacanth solution. Liability of the test compounds to the central nervous system effect was expressed with the following marks, according to the total sum of potencies for the individually analyzed effects, such as catalepsy, ptosis, hypolocomotin, etc.

As for `CC(C)=CCOc1cc(N)c(Cl)cc1C(=O)NCC1CN(Cc2ccccc2)CCO1` (stereo not shown) [Example 116, 4-amino-N-[(4-benzyl-2-morpholinyl)methyl]-5-chloro-2-(3-methyl-2-butenyloxy)benzamide], in the data set on gastric emptying, the change in vivo at 0.5 mg/kg was determined as 41.4% and the change in vivo at 2 mg/kg is 52.4%. In addition, the CNS effect entry in the data set with central nervous system was “-”.

With `CCOc1cc(NC(C)=O)c(Cl)cc1C(=O)NCC1CN(Cc2ccc(F)cc2)CCO1` (stereo not shown) [Example 7, 4-acetylamino-5-chloro-2-ethoxy-N-[[4-(4-fluorobenzyl)-2-morpholinyl]methyl]benzamide], in the data set on gastric emptying, the change in vivo at 2 mg/kg stood at 74%.

Regarding `COc1cc(N(C)C)c(Cl)cc1C(=O)NCC1CN(Cc2ccccc2)CCO1` (stereo not shown) [Example 130], the change in vivo at 2 mg/kg in the data set with gastric emptying was found to be 51.8%.

With `CC(C)COc1cc(N)c(Cl)cc1C(=O)NCC1CN(Cc2ccccc2)CCO1` (stereo not shown) [Example 91], the change in vivo at 2 mg/kg in the data set with gastric emptying was 51.2%. For the same compound, the CNS effect entry in the data set on central nervous system was “-”.

For `CCOc1cc(N)c(Cl)cc1C(=O)NCC1CN(C(C)c2ccccc2)CCO1` (stereo not shown) [Example 77], the change in vivo at 2 mg/kg in the data set on gastric emptying turned out to be 43.8%.

With `CC(C)CCOc1cc(N)c(Cl)cc1C(=O)NCC1CN(Cc2ccccc2Cl)CCO1` (stereo not shown) [Example 95], in the data set on gastric emptying, the change in vivo at 0.2 mg/kg turned out to be 34.7% and the change in vivo at 2 mg/kg was found to be 61.6%. Besides, in the data set with central nervous system, the CNS effect entry is “-”.

For the compound `CCN1CCOC(CNC(=O)c2ccccc2OC)C1.O=C(O)/C=C/C(=O)O` (stereo not shown) [Compound B, N-[(4-Ethyl-2-morpholinyl)methyl]-2-methoxybenzamide fumarate, reference compound], in the data set on gastric emptying (even at a dose of 10.0 mg/kg p.o.), the “gastric emptying enhancing effect (in words)” value is on record as “did not show any effect”. In the data set on gastric emptying, the change in vivo at 2 mg/kg was 3.8%, the change in vivo at 5 mg/kg was -1.9% and the change in vivo at 10 mg/kg is 2.1%.

Regarding `CCCCOc1cc(N)c(Cl)cc1C(=O)NCC1CN(Cc2ccc(F)cc2)CCO1` (stereo not shown) [Example 89], the change in vivo at 2 mg/kg in the data set with gastric emptying was found to be 49.9%. The CNS effect result with central nervous system is reported as “+”.

`CCOc1cc(N)c(Cl)cc1C(=O)NCC1CN(Cc2ccccn2)CCO1` (stereo not shown) [Example 79]: the change in vivo at 2 mg/kg with gastric emptying was determined as 51%.

Take `CCOc1cc(N)c(Cl)cc1C(=O)NCC1CN(Cc2cccc(Cl)c2)CCO1` (stereo not shown) [Example 67]: the change in vivo at 2 mg/kg in the data set on gastric emptying is 57.5%. For the same compound, in the data set with central nervous system, the CNS effect entry is recorded as “-”.

Consider `COc1cc(N)c(Cl)cc1C(=O)NCC1CN(Cc2cccc(C(F)(F)F)c2)CCO1` (stereo not shown) [Example 28], for which, in the data set with gastric emptying, the change in vivo at 2 mg/kg is 42.8%.

On to `CCCCOc1cc(N)c(Cl)cc1C(=O)NCC1CN(Cc2ccccc2)CCO1` (stereo not shown) [Example 88, 4-amino-N-[(4-benzyl-2-morpholinyl)methyl]-2-butoxy-5-chlorobenzamide], for which, in the data set with gastric emptying, the change in vivo at 0.2 mg/kg is 32.8%, the change in vivo at 0.5 mg/kg was 42.9% and the change in vivo at 2 mg/kg turned out to be 53.7%. Besides, in the data set with central nervous system, the CNS effect entry is given as “-”.

Take `CCCCCOc1cc(N)c(Cl)cc1C(=O)NCC1CN(Cc2ccccc2)CCO1` (stereo not shown) [Example 92]: the change in vivo at 2 mg/kg in the data set on gastric emptying was determined as 41%.

Consider `CCCCOc1cc(N)c(Cl)cc1C(=O)NCC1CN(Cc2ccccc2Cl)CCO1` (stereo not shown) [Example 90], for which the change in vivo at 2 mg/kg in the data set on gastric emptying was found to be 55.4%. In addition, the CNS effect entry in the data set with central nervous system was “-”.

Take `CCOc1cc(N)c(Cl)cc1C(=O)NCC1CN(Cc2ccc(F)cc2)CCO1` (stereo not shown) [Example 1(1), 4-amino-5-chloro-2-ethoxy-N-[[4-(4-fluorobenzyl)-2-morpholinyl]methyl]benzamide]: in the data set with gastric emptying, the change in vivo at 0.2 mg/kg turned out to be 39.5% and the change in vivo at 2 mg/kg is 49.8%. Also, the CNS effect entry in the data set on central nervous system is listed as “-”.

For the compound `CCOc1cc(N)c(Cl)cc1C(=O)NCC1CN(Cc2ccc(C#N)cc2)CCO1` (stereo not shown) [Example 73], in the data set with gastric emptying, the change in vivo at 0.5 mg/kg stood at 44.2% and the change in vivo at 2 mg/kg amounted to 46.2%.

For `CCOc1cc(N)c(Cl)cc1C(=O)NCC1CN(Cc2cccc(C(F)(F)F)c2)CCO1` (stereo not shown) [Example 70], the change in vivo at 2 mg/kg in the data set on gastric emptying was determined as 57.8%. In addition, the CNS effect entry in the data set on central nervous system is given as “-”.

Consider `COc1cc(N)c(Cl)cc1C(=O)NCC1CN(C(C)c2ccccc2)CCO1` (stereo not shown) [Example 37], for which the change in vivo at 2 mg/kg in the data set with gastric emptying was 42.2%.

Regarding `CCOc1cc(N)c(Cl)cc1C(=O)NCC1CN(Cc2cccc(F)c2)CCO1` (stereo not shown) [Example 65], the change in vivo at 2 mg/kg in the data set on gastric emptying worked out at 54.1%.

In the case of `CC(=O)COc1cc(N)c(Cl)cc1C(=O)NCC1CN(Cc2ccccc2)CCO1` (stereo not shown) [Example 104], the change in vivo at 2 mg/kg in the data set with gastric emptying was 43.8%. Further, the CNS effect entry with central nervous system is “-”.

As to `CCCOc1cc(N)c(Cl)cc1C(=O)NCC1CN(Cc2ccccc2)CCO1` (stereo not shown) [Example 86], the change in vivo at 2 mg/kg with gastric emptying is 55%.

Regarding `CCOc1cc(N)c(Cl)cc1C(=O)NCC1CN(Cc2ccc(Cl)cc2)CCO1` (stereo not shown) [68(1)], the change in vivo at 2 mg/kg with gastric emptying stood at 62.7%. Also, the CNS effect result in the data set on central nervous system is recorded as “-”.

With `COc1cc(N)c(Cl)cc1C(=O)NCC1CN(Cc2cccc(C#N)c2)CCO1` (stereo not shown) [Example 33], the change in vivo at 2 mg/kg in the data set with gastric emptying came to 42.3%.

Take `CCOc1cc(N)c(Cl)cc1C(=O)NCC1CN(CCCCc2ccccc2)CCO1` (stereo not shown) [Example 76]: in the data set with gastric emptying, the change in vivo at 2 mg/kg is 47.1%.

As to `CCOc1cc(N)c(Cl)cc1C(=O)NCC1CN(Cc2ccccc2)CCO1` (stereo not shown) [63(1), 4-amino-N-[(4-benzyl-2-morpholinyl)methyl]-5-chloro-2-ethoxybenzamide], in the data set on gastric emptying, the change in vivo at 0.5 mg/kg is 33.9% and the change in vivo at 2 mg/kg was 54.4%. Besides, the CNS effect result in the data set with central nervous system was “-”.

Turning to `COc1cc(N)c(Cl)cc1C(=O)NCC1CN(CCCOc2ccc(Cl)cc2)CCO1` (stereo not shown) [Example 52], the change in vivo at 2 mg/kg in the data set on gastric emptying turned out to be 52.5%.

For the compound `CCN(CC)CCNC(=O)c1cc(Cl)c(N)cc1OC` [A, 4-amino-5-chloro-N-[(2-diethylamino)ethyl]-2-methoxybenzamide, reference compound], in the data set with gastric emptying, the change in vivo at 2 mg/kg was determined as 20.7%, the change in vivo at 5 mg/kg was 25.7% and the change in vivo at 10 mg/kg was found to be 30.7%.

On to `COc1cc(N)c(Cl)cc1C(=O)NCC1CN(Cc2c(F)c(F)c(F)c(F)c2F)CCO1` (stereo not shown) [Example 25], for which the change in vivo at 2 mg/kg with gastric emptying is 39.1%.

With `CCOc1cc(N)c(Cl)cc1C(=O)NCC1CN(Cc2ccccc2F)CCO1` (stereo not shown) [Example 64], the change in vivo at 2 mg/kg with gastric emptying was determined as 59.9%.

Turning to `CCOc1cc(N)c(Cl)cc1C(=O)NCC1CN(Cc2ccccc2Cl)CC(C)O1` (stereo not shown) [Example 14, 4-amino-5-chloro-N-[[4-(2-chlorobenzyl)-6-methyl-2-morpholinyl]methyl]-2-ethoxybenzamide], in the data set on gastric emptying, the change in vivo at 2 mg/kg amounted to 47.5%.

With `C#CCOc1cc(N)c(Cl)cc1C(=O)NCC1CN(Cc2ccccc2)CCO1` (stereo not shown) [Example 120], in the data set with gastric emptying, the change in vivo at 2 mg/kg came to 40.6%.

In the case of `Nc1cc(OCC2CC2)c(C(=O)NCC2CN(Cc3ccccc3)CCO2)cc1Cl` (stereo not shown) [Example 111], the change in vivo at 2 mg/kg in the data set on gastric emptying came to 48.7%.

`CCOc1cc(N)c(Cl)cc1C(=O)NCC1CN(Cc2ccccc2)CCCO1` (stereo not shown) [Example 16, 4-amino-N-[(4-benzyl-hexahydro-1,4-oxazepin-2-yl)methyl]-5-chloro-2-ethoxybenzamide]: in the data set with gastric emptying, the change in vivo at 2 mg/kg turned out to be 47.3%.

Turning to `CCOc1cc(N(C)C)c(Cl)cc1C(=O)NCC1CN(Cc2ccccc2)CCO1` (stereo not shown) [Example 132], the change in vivo at 2 mg/kg in the data set with gastric emptying worked out at 50.6%.

Take `C=CCOc1cc(N)c(Cl)cc1C(=O)NCC1CN(Cc2ccccc2)CCO1` (stereo not shown) [Example 115]: the change in vivo at 2 mg/kg in the data set with gastric emptying is 45.6%.

As to `Nc1cc(OCCCl)c(C(=O)NCC2CN(Cc3ccccc3)CCO2)cc1Cl` (stereo not shown) [Example 102], the change in vivo at 2 mg/kg with gastric emptying amounted to 46.8%.

Take `CCOc1cc(N)c(Cl)cc1C(=O)NCC1C[N+]([O-])(Cc2ccccc2Cl)CCO1` (stereo not shown) [Example 244, 4-amino-5-chloro-N-[[4-(2-chlorobenzyl)-2-morpholinyl]methyl]-2-ethoxybenzamide N-oxide]: the change in vivo at 2 mg/kg with gastric emptying was 51.8%.
